How the values were obtained:
[1] = tested on: B cell proliferation; test: B cell proliferation EC50 (Table 3); type: cell-based; details: in vitro
[2] = target: T1, PI3K γ (Homo sapiens, UniProt P48736); test: In vitro IC50, PI3K γ (Table 3); type: biochemical
T1 construct: purchased Sigma
Description: (§1) An exemplary system is PI 3-Kinase (human) HTRF™ Assay from Upstate. […] The total reaction volume is approximately 20 μl per well. […] The reaction is stopped by adding 5 μl of Stop Solution per well and then 5 μl of Detection Mix is added per well.

[3] = target: T2, PI3K α (Homo sapiens, UniProt P42336); test: In vitro IC50, PI3K α (Table 3); type: biochemical
T2 construct: purchased Upstate
Description: as §1

[4] = target: T3, PI3K β (Homo sapiens, UniProt P42338); test: In vitro IC50, PI3K β (Table 3); type: biochemical
T3 construct: purchased Upstate
Description: as §1

[5] = tested on: NZBWF1/J mice; test: Murine NZB/W F1 lupus model; type: in vivo, mouse; details: 2 mg/kg PO QD, vs vehicle
From the text: Female NZBWF1/J mice (n=60) that were 8 weeks old on arrival and weighed approximately 35-51 grams (mean 42 g) at enrollment (mouse age approx. 23 weeks) were obtained from The Jackson Laboratory, Bar Harbor, Me. (stock number 100008). Animals were identified by a distinct number of ink marks at the base of the tail delineating animal number. After enrollment, all cages were labeled with protocol number, group number, and animal numbers.
Mice were terminated at age 43 weeks (day 140).
All dose solutions were prepared to deliver in 10 ml/kg (0.3 ml/30 g mouse).
Body weights were measured and recorded prior to study initiation for randomization, on the first day of dosing prior to dosing, and weekly throughout the study. Body weights were also recorded at scheduled termination points and as needed if test subjects appeared to decrease in weight by visual inspection. The animals were observed daily for significant clinical signs, morbidity and mortality.
Urine from each animal was tested weekly (beginning at mouse age 23 weeks) for proteinuria using Clinitech Multistick test strips (Bayer).
At necropsy, animals were anesthetized with isoflorane and bled via cardiac puncture for serum (for clinical chemistry analysis) and plasma (for Anti-dsDNA ELISA and PK). Terminal urine was collected and assessed. Spleens and kidneys (paired) were collected, weighed, and placed in 10% NBF. Serum obtained at necropsy was sent to Antech Diagnostics for analysis. Terminal plasma samples were split with half being used for Anti-dsDNA ELISA and the other half being shipped to the sponsor.
Anti-dsDNA IgG analysis was performed on days 0, 49, 98, and 140 (mouse age 23, 30, 37, and 43 weeks). Anti-dsDNA IgG levels were determined using an Anti-dsDNA IgG ELISA Kit (Alpha Diagnostic, kit #5120, lot #90903K4) following manufacturer's instructions.
Blood samples for clinical chemistry evaluation were collected at termination via cardiac puncture from Isoflurane anesthetized animals into serum separator microtainer tubes. Serum was sent to Antech Diagnostics for analysis.
The following parameters were measured: Albumin (ALB), Albumin: Globulin ratio (A/G), Alkaline phosphatase (ALK), Alanine aminotransferase (ALT), Aspartate aminotransferase (AST), Calcium (CA), Magnesium (Mg), Phosphorous (P), Globulin (GLOB), Electrolytes (Sodium (Na), Potassium (K), Chloride (Cl)), Gamma glutamyltransferase (GGT), Total bilirubin (TBILI), Amylase (AMY), Lipase (LIP), Osmolality, Triglycerides (TRIG), Total cholesterol (CHOL), Urea nitrogen (BUN), Creatinine (CREAT), Glucose (GLU), Total protein (TP), and Creatinine kinase (CPK).
Histopathologic evaluation was performed on kidneys. Kidneys from all surviving animals were examined microscopically by a board certified veterinary pathologist and observations were entered into a computer-assisted data retrieval system. Kidney sections were stained with Masson's Trichrome, or Hematoxylin and Eosin. To maintain blinding of the analysis, slides were labeled with the animal number with no reference to treatment group.
Kidneys were scored according to the following system (developed by Chan O, Madaio M P, Shlomchik M J. The roles of B cells in MRL/lpr murine lupus. Annals New York Academy of Sciences, 1997; 815:75-82), modified to suit the lesion severity.
• 0=Normal. • 1=Focal or multifocal, minimal to mild, early proliferative. • 2=Multifocal mild to moderate or mild diffuse proliferative. • 3=Diffuse moderate proliferative with or without multifocal severe areas. • 4=Marked diffuse proliferative, with crescents/sclerosis, multifocal protein casts present. • 5=Severe diffuse proliferative, with crescents/sclerosis, diffuse protein casts present. […]

[6] = tested on: mouse EAE model; test: Experimental Autoimmune Encephalomyelitis (EAE) model, semi-therapeutic, 28 day; type: in vivo; details: FTY720 3 mg/kg QD p.o.
Description: EAE was induced in 60 mice using Hooke Kit™ MOG35-55/CFA Emulsion PTX (Hooke Laboratories, Lawrence Mass.), catalog number EK-0110, lot number 0104, per manufacturer's recommended protocol, except that pertussis toxin was diluted with phosphate buffered saline to achieve 1.4× and 1.3× solution (starting from the 1.5× solution in the kit). This was done to optimize disease severity for this particular study.
Mice were injected subcutaneously, at two sites in the back, with the emulsion component of the kit (containing MOG35-55). One site of injection was in the area of the upper back, approximately 1 cm caudal of the neck line. The second site was in the area of the lower back, approximately 2 cm cranial of the base of the tail. Injection volume was 0.1 mL at each site. Within 2 hours of the injection of emulsion, and then again 24 hours after the injection of emulsion, the pertussis toxin component of the kit was administered intraperitoneally. Volume of each injection was 0.1 mL.
Vehicle for Group 2 (FTY720) was water and 2% ethanol. Vehicle for all other groups was water, 0.5% CMC (low viscosity), and 0.05% Tween80. Mice were dosed at the same time every day, +/−1 hour. The last day of dosing was Day 27 after immunization.
Readouts were EAE scores and changes in body weight. Mice were scored daily from Day 7 to Day 28, and body weights were measured three times/week (Monday, Wednesday and Friday), starting on Day −1.
EAE was scored on scale 0 to 5: • 0 No obvious changes in motor functions of the mouse in comparison to non-immunized mice. When picked up by the tail, the tail has tension and is erect. Hind legs are usually spread apart. When the mouse is walking, there is no gait or head tilting. • 1 Limp tail. When the mouse is picked up by the tail, instead of being erect, the whole tail drapes over finger. • 2 Limp tail and weakness of hind legs. When mouse is picked up by tail, legs are not spread apart, but held closer together. When the mouse is observed walking, it has a clearly apparent wobbly walk. • 3 Limp tail and complete paralysis of hind legs (most common); or limp tail with paralysis of one front and one hind leg; or all of: severe head tilting, walking only along the edges of the cage, pushing against the cage wall, and spinning when picked up by the tail. • 4 Limp tail, complete hind leg and partial front leg paralysis. Mouse is minimally moving around the cage but appears alert and feeding Usually, euthanasia is recommended after the mouse scores level 4 for 2 days. When the mouse is euthanized because of severe paralysis, score of 5 is entered for that mouse for the rest of the experiment. • 5 Complete hind and complete front leg paralysis, no movement around the cage; or mouse is spontaneously rolling in the cage; or mouse is found dead due to paralysis.
At the end of the study 3 luxol fast blue (LFB) stained sections and 3 H&E sections, from lumbar, thoracic, and cervical spinal cord of all mice in Groups 1, 2, 3, and 6 and the 3 naïve mice were prepared and analyzed.
Inflammatory foci were counted in each H&E stained section. Each group of approximately 20 cells was counted as one focus. Foci larger than 20 cells were counted based on an estimate of how many foci of 20 cells were present.
The demyelination score represents an estimate of demyelinated area for each section as follows. For LFB stained slides, the demyelinated area was estimated based on intensity of blue staining of myelin. For H&E stained sections, demyelinated area was estimated by looking for interruption of normal structure—pallor and vacuolation consistent with edema and demyelination, and dilated axons. • 0—no demyelination (less than 5% demyelinated area) • 1—5 to 20% demyelinated area • 2—20 to 40% demyelinated area • 3—40 to 60% demyelinated area • 4—60 to 80% demyelinated area • 5—80 to 100% demyelinated area.
The number of apoptotic cells in each of the three H&E sections was determined.

T3 sequence (P42338 whole entry): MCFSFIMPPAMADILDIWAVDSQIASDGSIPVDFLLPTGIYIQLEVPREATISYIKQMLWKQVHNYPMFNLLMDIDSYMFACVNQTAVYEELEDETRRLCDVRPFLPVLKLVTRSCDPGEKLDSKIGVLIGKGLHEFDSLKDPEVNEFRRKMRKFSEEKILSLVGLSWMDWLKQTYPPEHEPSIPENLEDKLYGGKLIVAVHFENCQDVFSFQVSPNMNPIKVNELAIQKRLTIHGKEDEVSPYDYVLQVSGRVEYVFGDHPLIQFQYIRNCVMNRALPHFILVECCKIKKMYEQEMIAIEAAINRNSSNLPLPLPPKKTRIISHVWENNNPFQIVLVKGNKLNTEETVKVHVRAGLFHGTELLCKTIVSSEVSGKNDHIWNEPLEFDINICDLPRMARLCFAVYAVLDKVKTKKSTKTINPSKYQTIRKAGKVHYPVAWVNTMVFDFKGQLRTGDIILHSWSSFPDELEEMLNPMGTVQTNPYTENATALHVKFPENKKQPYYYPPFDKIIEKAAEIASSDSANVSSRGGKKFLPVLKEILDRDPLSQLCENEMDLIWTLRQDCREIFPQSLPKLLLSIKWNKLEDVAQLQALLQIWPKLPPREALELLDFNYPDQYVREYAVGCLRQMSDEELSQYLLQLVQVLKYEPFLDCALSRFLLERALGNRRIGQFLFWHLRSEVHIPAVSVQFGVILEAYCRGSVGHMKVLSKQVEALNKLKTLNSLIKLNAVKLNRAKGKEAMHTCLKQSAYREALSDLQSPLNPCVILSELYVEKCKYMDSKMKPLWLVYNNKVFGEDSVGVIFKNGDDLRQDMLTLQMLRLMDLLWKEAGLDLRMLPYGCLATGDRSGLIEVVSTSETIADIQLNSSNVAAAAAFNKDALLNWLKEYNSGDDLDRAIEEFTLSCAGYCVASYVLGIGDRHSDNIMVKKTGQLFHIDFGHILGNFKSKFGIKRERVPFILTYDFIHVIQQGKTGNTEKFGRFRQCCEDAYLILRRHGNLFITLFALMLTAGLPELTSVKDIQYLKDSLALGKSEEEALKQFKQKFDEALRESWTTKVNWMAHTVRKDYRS
T3 sequence (P27986 whole entry partner): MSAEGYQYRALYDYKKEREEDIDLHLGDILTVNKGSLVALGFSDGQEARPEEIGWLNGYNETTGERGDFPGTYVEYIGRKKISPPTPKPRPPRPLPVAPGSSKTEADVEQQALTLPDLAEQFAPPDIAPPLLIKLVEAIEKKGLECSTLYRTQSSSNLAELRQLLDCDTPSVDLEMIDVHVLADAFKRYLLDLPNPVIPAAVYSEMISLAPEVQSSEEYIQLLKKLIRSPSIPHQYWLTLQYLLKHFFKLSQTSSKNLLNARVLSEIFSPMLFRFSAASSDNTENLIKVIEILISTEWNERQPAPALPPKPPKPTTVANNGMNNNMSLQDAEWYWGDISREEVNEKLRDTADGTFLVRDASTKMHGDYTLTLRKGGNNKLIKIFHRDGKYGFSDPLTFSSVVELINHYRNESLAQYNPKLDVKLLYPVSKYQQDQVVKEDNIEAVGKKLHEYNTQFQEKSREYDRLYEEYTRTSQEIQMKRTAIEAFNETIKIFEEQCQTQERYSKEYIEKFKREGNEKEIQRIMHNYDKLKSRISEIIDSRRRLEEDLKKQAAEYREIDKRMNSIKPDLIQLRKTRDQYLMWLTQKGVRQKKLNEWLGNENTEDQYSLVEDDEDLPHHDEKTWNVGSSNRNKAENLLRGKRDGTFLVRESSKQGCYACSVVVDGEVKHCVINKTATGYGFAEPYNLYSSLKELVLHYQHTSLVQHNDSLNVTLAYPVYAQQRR
T1 sequence (P48736 whole entry): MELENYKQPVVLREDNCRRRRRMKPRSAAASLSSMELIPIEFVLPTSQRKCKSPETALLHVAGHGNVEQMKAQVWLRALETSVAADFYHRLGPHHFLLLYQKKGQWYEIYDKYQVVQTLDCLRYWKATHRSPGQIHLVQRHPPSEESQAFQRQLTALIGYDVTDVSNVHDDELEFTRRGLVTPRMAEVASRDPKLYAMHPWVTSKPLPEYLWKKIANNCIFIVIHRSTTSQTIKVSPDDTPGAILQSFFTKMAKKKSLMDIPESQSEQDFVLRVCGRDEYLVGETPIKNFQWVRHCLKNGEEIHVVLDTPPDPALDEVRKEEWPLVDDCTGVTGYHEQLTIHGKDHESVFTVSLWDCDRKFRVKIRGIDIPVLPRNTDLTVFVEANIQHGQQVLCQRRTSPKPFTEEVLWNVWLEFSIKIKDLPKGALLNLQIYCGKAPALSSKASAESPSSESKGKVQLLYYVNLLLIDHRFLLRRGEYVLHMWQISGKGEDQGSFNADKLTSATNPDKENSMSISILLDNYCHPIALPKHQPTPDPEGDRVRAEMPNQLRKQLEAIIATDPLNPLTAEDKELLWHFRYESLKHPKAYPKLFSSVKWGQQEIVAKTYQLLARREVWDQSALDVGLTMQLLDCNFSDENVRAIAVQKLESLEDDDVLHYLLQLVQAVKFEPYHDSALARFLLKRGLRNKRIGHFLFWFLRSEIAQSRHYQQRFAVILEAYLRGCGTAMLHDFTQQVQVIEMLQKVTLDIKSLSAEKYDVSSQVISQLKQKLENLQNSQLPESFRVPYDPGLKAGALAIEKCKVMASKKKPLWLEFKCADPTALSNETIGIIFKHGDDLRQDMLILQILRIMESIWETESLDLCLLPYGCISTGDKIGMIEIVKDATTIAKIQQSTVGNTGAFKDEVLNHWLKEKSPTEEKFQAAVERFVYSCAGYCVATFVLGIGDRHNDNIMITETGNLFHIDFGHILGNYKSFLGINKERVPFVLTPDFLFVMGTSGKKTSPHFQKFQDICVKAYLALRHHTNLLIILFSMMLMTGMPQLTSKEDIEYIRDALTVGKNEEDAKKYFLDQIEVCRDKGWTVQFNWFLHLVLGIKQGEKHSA
T2 sequence (P42336 whole entry): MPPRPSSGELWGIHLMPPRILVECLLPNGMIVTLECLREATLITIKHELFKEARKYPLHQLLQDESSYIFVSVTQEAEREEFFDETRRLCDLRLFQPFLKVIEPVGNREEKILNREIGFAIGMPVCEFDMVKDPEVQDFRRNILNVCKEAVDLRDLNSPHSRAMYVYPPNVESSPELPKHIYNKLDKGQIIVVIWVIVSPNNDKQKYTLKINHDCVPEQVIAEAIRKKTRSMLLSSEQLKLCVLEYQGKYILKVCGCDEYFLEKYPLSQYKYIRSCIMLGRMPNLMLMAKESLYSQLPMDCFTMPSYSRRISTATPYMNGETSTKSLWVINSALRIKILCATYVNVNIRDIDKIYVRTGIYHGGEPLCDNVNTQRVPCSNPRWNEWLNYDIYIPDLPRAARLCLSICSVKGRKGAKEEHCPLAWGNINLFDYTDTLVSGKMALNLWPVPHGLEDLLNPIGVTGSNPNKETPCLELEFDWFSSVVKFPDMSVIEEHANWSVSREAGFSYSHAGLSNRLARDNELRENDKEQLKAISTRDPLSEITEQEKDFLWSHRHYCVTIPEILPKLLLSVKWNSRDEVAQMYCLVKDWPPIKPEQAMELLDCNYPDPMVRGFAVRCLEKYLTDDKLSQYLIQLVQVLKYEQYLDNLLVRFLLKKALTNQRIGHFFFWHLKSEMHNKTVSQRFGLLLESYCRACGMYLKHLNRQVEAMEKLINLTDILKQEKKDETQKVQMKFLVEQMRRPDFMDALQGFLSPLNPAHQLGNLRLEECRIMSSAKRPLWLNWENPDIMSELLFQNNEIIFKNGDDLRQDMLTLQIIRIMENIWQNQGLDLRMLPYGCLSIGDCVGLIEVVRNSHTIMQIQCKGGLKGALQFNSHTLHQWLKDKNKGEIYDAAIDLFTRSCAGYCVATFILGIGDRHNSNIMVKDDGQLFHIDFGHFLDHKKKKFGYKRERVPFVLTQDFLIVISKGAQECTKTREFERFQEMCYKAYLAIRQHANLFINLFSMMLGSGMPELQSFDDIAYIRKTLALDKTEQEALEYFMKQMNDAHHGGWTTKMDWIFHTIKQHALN
T2 sequence (P27986 whole entry partner): as the sequence (P27986 whole entry partner) above

## Cc1ccccc1-n1c(Cn2nc(I)c3c(N)ncnc32)cc2cccc(C)c2c1=O [Compound 6]
[1]
  EC50: < 100 nM

## Cc1cccc2cc(Cn3nc(C#CCO)c4c(N)ncnc43)n(-c3ccccc3F)c(=O)c12 [Compound 7]
[2]
  IC50: < 100 nM
[3]
  IC50: < 10000 nM
[4]
  IC50: < 1000 nM
[1]
  EC50: < 100 nM

## Cc1ccccc1-n1c(Cn2nc(-c3cc(O)cc(F)c3)c3c(N)ncnc32)cc2cccc(C)c2c1=O [Compound 8]
[4]
  IC50: > 10000 nM
[1]
  EC50: < 1000 nM

## C[C@@H]1C[C@H]2[C@@H]3CCC4=CC(=O)C=C[C@]4(C)[C@@]3(F)[C@@H](O)C[C@]2(C)[C@@]1(O)C(=O)CO [Dex, dexamethasone, reference compound]
[5]; kidney histopathology
  Glomerulonephritis score reduction: 91%
[5]
  Interstitial nephritis score reduction: 95%
  Kidney weight increase: 20%
  Perivascular inflammation score reduction: 100%
  Spleen weight reduction: 76%
  Summed histopathology scores reduction: 88%

## CCCCCCCCc1ccc(CCC(N)(CO)CO)cc1 [FTY720, reference compound]
[6]
  MMS +/− SD: 1.65 +/− 1.23
  Median Day of Onset: 11.5 days
[6]; Day 27 relative to Day −1
  End % body weight +/− SD: 110.0 +/− 7.4%
[6]; Day 28
  End score +/− SD: 0.45 +/− 0.44
[6]; per spinal cord section
  Inflammatory foci +/− SD: 0.3 +/− 0.4
[6]; score per section
  Demyelination (LFB) +/− SD: 0.3 +/− 0.3
